Results published in patent US20170150719A1, “FUNGICIDAL PYRAZOLES AND THEIR MIXTURES” (E I DU PONT DE NEMOURS AND COMPANY, priority 2010, published 2017).
Marks after values point to notes of the source that are not given here.

Tests used:
[1] = test system: Septoria tritici; experiment: Test F: wheat leaf blotch, preventive spray on wheat seedlings, visual disease rating; assay type: in vivo; parameters: Test F rating (disease control), value marked *: concentration or dose not given beside the values; conditions: for Test F rating (% disease control): preventive spray, rating without asterisk; for Test F rating (disease control), value marked *: rating marked with asterisk (*), other test condition, not explained in the text shown
Source text: (§1) A hyphen (-) indicates no test results.

[2] = test system: Puccinia recondita f. sp. tritici; experiment: Test H: wheat leaf rust, preventive spray on wheat seedlings, visual disease rating; conditions: for Test H rating (% disease control): preventive spray, rating without asterisk; for Test H rating (disease control): sprayed the day before inoculation
Protocol: (§2) General protocol for preparing test suspensions for Tests A-I: the test compounds were first dissolved in acetone in an amount equal to 3% of the final volume and then suspended at the desired concentration (in ppm) in acetone and purified water (50/50 mix by volume) containing 250 ppm of the surfactant Trem® 014 (polyhydric alcohol esters). The resulting test suspensions were then used in Tests A-I. Each test was conducted in triplicate, and the results were averaged. Spraying a 200 ppm test suspension to the point of run-off on the test plants was the equivalent of a rate of about 800 g/ha. Unless otherwise indicated, the rating values indicate a 200 ppm test suspension was used. (An asterisk “*” next to the rating value indicates a 40 ppm test suspension was used.)
The test suspension was sprayed to the point of run-off on wheat seedlings. The following day the seedlings were inoculated with a spore suspension of Puccinia recondita f. sp. tritici (the causal agent of wheat leaf rust) and incubated in a saturated atmosphere at 20° C. for 24 h, and then moved to a growth chamber at 20° C. for 6 days, after which time visual disease ratings were made.

[3] = test system: Puccinia recondita f. sp. tritici; experiment: Test G: wheat leaf rust, spray after inoculation (curative) on wheat seedlings, visual disease rating; assay type: in vivo; conditions: for Test G rating (% disease control): spray after inoculation, rating without asterisk
Source text: as §1

[4] = test system: Alternaria solani; experiment: Test B: tomato early blight, preventive spray on tomato seedlings, visual disease rating; conditions: for Test B rating (% disease control): preventive spray, rating without asterisk; for Test B rating (% disease control) / Test B rating (disease control): 100 = 100% disease control; for Test B rating (disease control): 0 = no disease control relative to the controls
[5] = test system: Botrytis cinerea; experiment: Test A: tomato Botrytis, preventive spray on tomato seedlings, visual disease rating; conditions: for Test A rating (% disease control): preventive spray, 0 = no control relative to controls, rating without asterisk
Protocol: as §2
The test suspension was sprayed to the point of run-off on tomato seedlings. The following day the seedlings were inoculated with a spore suspension of Botrytis cinerea (the causal agent of tomato Botrytis) and incubated in saturated atmosphere at 20° C. for 48 h, and then moved to a growth chamber at 24° C. for 3 additional days, after which time visual disease ratings were made.

[6] = test system: Blumeria graminis f. sp. tritici; experiment: Test I: wheat powdery mildew, preventive spray on wheat seedlings, visual disease rating; conditions: for Test I rating (% disease control): preventive spray, rating without asterisk
[7] = test system: Septoria nodorum; experiment: Test E: Septoria glume blotch, preventive spray on wheat seedlings, visual disease rating; conditions: for Test E rating (% disease control): Septoria glume blotch on wheat, preventive spray, rating without asterisk
[8] = wheat leaf rust, 100 = 100% disease control
[9] = tomato Botrytis, 100 = 100% disease control
[10] = wheat powdery mildew, 100 = 100% disease control
[11] = 100 = 100% disease control, 0 = no disease control relative to the controls
[12] = wheat leaf rust, 100 = 100% disease control, 0 = no disease control
[13] = sprayed after inoculation, 100 = 100% disease control, 0 = no disease control
[14] = tomato Botrytis, 100 = 100% disease control, 0 = no disease control relative to the controls
[15] = wheat powdery mildew, 100 = 100% disease control, 0 = no disease control relative to the controls
[16] = Septoria glume blotch, 100 = 100% disease control, 0 = no disease control relative to the controls

Row | SMILES | Test F rating (% disease control) ([1]; 100 = 100% disease control) [%] | Test H rating (% disease control) [2, 8] [%] | Test G rating (% disease control) ([3]; 100 = 100% disease control) [%] | Test B rating (% disease control) ([4]; tomato early blight) [%] | Test A rating (% disease control) [5, 9] [%] | Test I rating (% disease control) [6, 10] [%] | Test E rating (% disease control) ([7]; 100 = 100% disease control) [%] | Test F rating (disease control) [1, 11] [%] | Test H rating (disease control) [2, 12] [%] | Test G rating (disease control) [3, 13] [%] | Test B rating (disease control) ([4]; tomato early blight) [%] | Test A rating (disease control) [5, 14] [%] | Test I rating (disease control) [6, 15] [%] | Test E rating (disease control) [7, 16] [%] | other results
1 | Cc1nn(C)c(Nc2c(F)cc(Cl)cc2F)c1-c1ccc(F)cc1I [compound 225] | 100 | 99 | 0 | 68 | 99 | 100 | 0 |  |  |  |  |  |  |  | 
2 | Cc1nn(C)c(Oc2ccc(C#N)cc2F)c1-c1c(F)cc(F)cc1F [compound 27] |  |  |  |  |  |  |  | 100 | 99 | 9 | 99 | 99 | 100 | 99 | 
3 | Cc1nn(C)c(Nc2c(Cl)cc(Cl)cc2I)c1-c1ccc(F)cc1F [compound 210] | 100 | 97 | 0 | 0 | 3 | 0 | 0 |  |  |  |  |  |  |  | 
4 | CCOc1ccc(-c2c(C)nn(C)c2Nc2ccc(F)cc2F)c(Cl)c1 [compound 209] | 100 | 92 | 0 | 95 | 98 | 100 | 0 |  |  |  |  |  |  |  | 
5 | Cc1nn(C)c(Oc2ccc(C#N)cc2Cl)c1-c1ccc(F)cc1Br [compound 80] |  |  |  |  |  |  |  |  | 99 | 9 | 0 | 98 | 99 | 60 | Test F rating (disease control), value marked * [1]: 100* %
6 | Cc1nn(C)c(Nc2ccc(Cl)cc2F)c1-c1ccc(F)cc1F [compound 160] |  |  |  |  |  |  |  | 100 | 99 | 0 | 99 | 100 | 100 | 0 | 
7 | Cc1nn(C)c(Nc2c(Cl)cc(Cl)cc2Cl)c1-c1ccc(F)cc1Cl [compound 170] |  |  |  |  |  |  |  | 100 | 98 | 79 | 0 | 65 | 79 | 0 | 
8 | Cc1nn(C)c(Oc2ccc(C#N)cc2Cl)c1-c1c(F)cc(F)cc1F [compound 28] |  |  |  |  |  |  |  | 100 | 99 | 26 | 17 | 100 | 99 | 69 | 
9 | COc1ccc(-c2c(C)nn(C)c2Nc2c(F)cc(F)cc2I)c(Cl)c1 [compound 219] | 100 | 100 | 99 | 100 | 100 | 99 | 100 |  |  |  |  |  |  |  | 
10 | COc1cc(F)c(Nc2c(-c3ccc(F)cc3F)c(C)nn2C)c(F)c1 [compound 12] |  |  |  |  |  |  |  | 93 | 94 | 0 | 0 | 100 | 82 | 0 | 
11 | Cc1nn(C)c(Nc2c(F)cc(F)cc2I)c1-c1ccc(F)cc1Cl [compound 213] | 100 | 100 | 100 | 100 | 100 | 100 | 100 |  |  |  |  |  |  |  | 
12 | Cc1nn(C)c(Nc2c(F)cc(Br)cc2F)c1-c1ccc(F)cc1Br [compound 163] |  |  |  |  |  |  |  |  |  |  |  |  |  |  | Test F rating (disease control), value marked * [1]: 100* %; Test H rating (disease control), value marked * ([2]; wheat leaf rust, preventive, rating marked with asterisk (*), not explained in the text shown): 100* %; Test G rating (disease control), value marked * ([3]; sprayed after inoculation, rating marked with asterisk (*), not explained in the text shown): 91* %; Test B rating (disease control), value marked * ([4]; tomato early blight, rating marked with asterisk (*), other test condition, not explained in the text shown): 77* %; Test A rating (disease control), value marked * ([5]; tomato Botrytis, rating marked with asterisk (*), other test condition, not explained in the text shown): 100* %; Test I rating (disease control), value marked * ([6]; wheat powdery mildew, rating marked with asterisk (*), not explained in the text shown): 100* %; Test E rating (disease control), value marked * ([7]; Septoria glume blotch, rating marked with asterisk (*), other test condition, not explained in the text shown): 60* %
13 | Cc1nn(C)c(Oc2c(F)cc(C#N)cc2F)c1-c1ccc(F)cc1Cl [Compound 13, 4-[[4-(2-chloro-4-fluorophenyl)-1,3-dimethyl-1H-pyrazol-5-yl]oxy]-3,5-difluorobenzonitrile] |  |  |  |  |  |  |  |  |  |  |  |  |  |  | pest or weed control at 200 µg/mL ([1]; Zymoseptoria tritici, 100 = 100% disease control, 0 = no disease control relative to the controls): 100%; pest or weed control at 200 µg/mL ([2]; read-out: Test H rating (disease control), wheat leaf rust, sprayed the day before inoculation, 100 = 100% disease control, 0 = no disease control): 100%; pest or weed control at 200 µg/mL [3, 13]: 7%; pest or weed control at 200 µg/mL ([4]; Alternaria solani, in Solanum lycopersicum, read-out: Test B rating (disease control)): 100%; pest or weed control at 200 µg/mL ([5]; Botrytis cinerea, in Solanum lycopersicum, read-out: Test A rating (disease control), tomato Botrytis, 100 = 100% disease control, 0 = no disease control relative to the controls): 100%; pest or weed control at 200 µg/mL ([6]; Blumeria graminis, in Triticum aestivum, read-out: Test I rating (disease control), wheat powdery mildew, 100 = 100% disease control, 0 = no disease control relative to the controls): 100%; pest or weed control at 200 µg/mL ([7]; Parastagonospora nodorum, in Triticum aestivum, read-out: Test E rating (disease control), Septoria glume blotch, 100 = 100% disease control, 0 = no disease control relative to the controls): 100%
14 | Cc1nn(C)c(Nc2c(F)cc(Cl)cc2I)c1-c1ccc(F)cc1Cl [compound 182] | 100 | 100 | 100 | 100 | 100 | 100 | 100 |  |  |  |  |  |  |  | 
15 | Cc1nn(C)c(Nc2ccc(F)cc2Cl)c1-c1ccc(Cl)cc1Cl [compound 125] |  |  |  |  |  |  |  | 100 | 98 | 82 | 0 | 99 | 100 | 0 | 
16 | Cc1nn(C)c(Nc2ccc(F)cc2Br)c1-c1ccc(F)cc1Br [compound 95] |  |  |  |  |  |  |  | 100 | 100 | 91 | 97 | 100 | 100 | 51 | 
